Values quoted from earlier work, collected in US20050263150A1, “Systems and methods for the administration of drugs and medications” (priority 2004, published 2005).
Read-outs that look alike come from different tables or passages of the source.

Tests used:
[1] = ketamine combined with benzodiazepines and barbiturates, extends ketamine's half-life
[2] = for duration of action: in vivo

## CC(C)c1cccc(C(C)C)c1O [Propofol]
other
  solubility in water: almost completely insoluble in water

## CNC1(c2ccccc2Cl)CCCCC1=O (stereo not drawn) [Ketamine, 2-(2-chlorophenyl)-2-(methylamino)-cyclohexanone]
[1]
  prolonging clinical recovery time: about 30%

## C=CCC1(C(C)C#CCC)C(=O)N=C(O)N(C)C1=O (stereo not drawn) [Methohexital]
[2]
  duration of action: less than 10 minutes
[2]; procedural sedation
  onset of action: less than 1 minute

## [N-]=[N+]=O [Nitrous oxide]
[2]
  duration of action: 3 to 5 min
[2]; sedative/analgesic
  onset of action: 3 to 5 min
